Earlier results in patent US20230301959A1, “COMBINATIONS OF CARNOSINE AND ZINC FOR THE TREATMENT AND PREVENTION OF VIRAL INFECTIONS” (priority 2020, published 2023).

Tests used:
H9N2 influenza virus = conditions: mouse, in vivo, po, 10 mg/kg
Dengue and Zika virus = conditions: liver cell culture
[1] = dietary administration
[2] = biological target: T1, viral RNA-dependent RNA polymerase (RdRp) from rhinoviruses (Human rhinovirus 16, UniProt Q82122)
T1 construct: viral RNA-dependent RNA polymerase (RdRp) from rhinoviruses and hepatitis C

human rhinovirus = conditions: infected cells
[3] = biological target: coronavirus RNA polymerase (Severe acute respiratory syndrome coronavirus, UniProt P0C6X7)
[4] = tested on: viral RNA-dependent RNA polymerase (RdRp) from hepatitis C
coxsackievirus B3 = conditions: infected cells
rhinovirus 3C protease = rhinovirus 3C protease (Human rhinovirus 14, UniProt P03303)
[5] = biological target: T2, arterivirus RNA polymerase (Equine arteritis virus, UniProt P19811); conditions: in vitro
T2 sequence (P19811 1678-2370 limits assumed): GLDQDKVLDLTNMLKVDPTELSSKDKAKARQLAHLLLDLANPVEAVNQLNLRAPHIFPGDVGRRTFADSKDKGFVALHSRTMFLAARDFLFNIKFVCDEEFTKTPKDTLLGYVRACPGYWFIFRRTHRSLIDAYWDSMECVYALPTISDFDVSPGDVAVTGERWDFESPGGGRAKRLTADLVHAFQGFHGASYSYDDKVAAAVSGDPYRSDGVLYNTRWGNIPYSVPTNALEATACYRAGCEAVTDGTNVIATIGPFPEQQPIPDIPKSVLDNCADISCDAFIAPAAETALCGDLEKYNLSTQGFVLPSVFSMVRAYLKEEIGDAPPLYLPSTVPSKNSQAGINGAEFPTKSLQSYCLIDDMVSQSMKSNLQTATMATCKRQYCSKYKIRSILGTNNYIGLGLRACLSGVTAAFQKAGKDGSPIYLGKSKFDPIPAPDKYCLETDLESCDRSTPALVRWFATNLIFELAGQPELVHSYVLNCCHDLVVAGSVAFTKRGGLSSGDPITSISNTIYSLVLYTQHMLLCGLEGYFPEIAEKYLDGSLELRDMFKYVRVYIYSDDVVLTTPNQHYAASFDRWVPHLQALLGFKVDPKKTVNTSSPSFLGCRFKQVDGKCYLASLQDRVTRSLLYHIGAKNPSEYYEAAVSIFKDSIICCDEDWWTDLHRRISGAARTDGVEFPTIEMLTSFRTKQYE

poliovirus 3C protease = poliovirus 3C protease (Poliovirus type 1, UniProt P03300)
Chain of poliovirus 3C protease (P03300 1566-1748 limits assumed): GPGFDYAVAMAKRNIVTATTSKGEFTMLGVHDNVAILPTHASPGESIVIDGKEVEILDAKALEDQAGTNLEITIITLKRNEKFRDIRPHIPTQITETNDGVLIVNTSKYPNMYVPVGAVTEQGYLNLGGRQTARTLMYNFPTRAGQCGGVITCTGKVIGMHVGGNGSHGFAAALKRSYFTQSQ

Chain of rhinovirus 3C protease (P03303 1538-1719 limits assumed): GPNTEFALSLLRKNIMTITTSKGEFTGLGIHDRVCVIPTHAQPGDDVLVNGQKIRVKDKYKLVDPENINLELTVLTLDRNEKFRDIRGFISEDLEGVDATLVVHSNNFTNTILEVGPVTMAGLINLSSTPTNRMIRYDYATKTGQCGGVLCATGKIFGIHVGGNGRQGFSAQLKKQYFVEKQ
T1 sequence (Q82122 1694-2153 limits assumed): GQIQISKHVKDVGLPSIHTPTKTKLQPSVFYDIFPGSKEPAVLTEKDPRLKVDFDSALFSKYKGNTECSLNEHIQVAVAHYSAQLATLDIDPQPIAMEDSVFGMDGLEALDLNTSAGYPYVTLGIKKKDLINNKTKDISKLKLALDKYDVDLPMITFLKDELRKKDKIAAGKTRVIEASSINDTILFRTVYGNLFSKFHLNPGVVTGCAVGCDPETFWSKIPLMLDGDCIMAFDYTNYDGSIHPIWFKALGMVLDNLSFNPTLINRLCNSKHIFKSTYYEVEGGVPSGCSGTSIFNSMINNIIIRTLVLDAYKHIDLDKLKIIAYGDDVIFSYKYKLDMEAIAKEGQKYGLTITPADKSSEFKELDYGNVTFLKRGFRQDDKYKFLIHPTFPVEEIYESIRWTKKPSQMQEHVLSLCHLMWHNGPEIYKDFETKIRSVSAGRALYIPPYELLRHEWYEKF

Row | Structure (SMILES) | levels of TNF-a, IL-1b, TLR-4 mRNA and protein (H9N2 influenza virus) | lung wet mass ratio (H9N2 influenza virus) | myeloperoxidase activity (H9N2 influenza virus) | overall mortality (H9N2 influenza virus) [%] | pathological lung lesions (H9N2 influenza virus) | cell viability post infection (Dengue and Zika virus) | viral genome replication (Dengue and Zika virus) | early atherosclerotic lesion formation [1] | renal disease [1] | safety of regular administration (2-4 months, in combination with forskolin, homotaurine, vitamins B1, B2, B6, folic acid, magnesium, different age groups) | tolerability (2 weeks, obese patients with Type-II diabetes and Gulf-War Veterans, without any reported adverse reactions) | activity of RdRp [2] | polyprotein processing (human rhinovirus) | RNA polymerase activity [3] | activity of RdRp [4] | polyprotein processing (coxsackievirus B3) | protease activity (rhinovirus 3C protease) | RNA polymerase activity [5] | protease activity (poliovirus 3C protease)
1 | NCCC(=O)N[C@@H](Cc1cnc[nH]1)C(=O)O [carnosine, β-alanyl-L-histidine] | significantly reduced | decreased | reduced | 43 | improvement | ameliorate | significantly inhibit | prevent | attenuating | safe | well tolerated |  |  |  |  |  |  |  | 
2 | [Zn+2] [zinc ion] |  |  |  |  |  |  |  |  |  |  |  | inhibitory effect | inhibited | inhibits | inhibitory effect | inhibited | inhibited | inhibits | inhibited
